{"source": "paper PMC7020211", "about": "“Inhibition of Digestive Enzymes and Antioxidant Activity of Extracts from Fruits of Cornus alba, Cornus sanguinea subsp. hungarica and Cornus florida–A Comparative Study” (Plants, 2020)", "key": {"α-glucosidase": {"molecular_target": "α-glucosidase", "set-up": "method as in doi:10.1016/j.jff.2017.04.005", "conditions": "cited from earlier work"}, "PL": {"system": "PL", "set-up": "method as in doi:10.1016/j.jff.2017.04.005", "conditions": "read-out: IC50 against PL activity; cited from earlier work"}, "[1]": {"molecular_target": "α-glucosidase from Saccharomyces cerevisiae (Saccharomyces cerevisiae, UniProt P53341)", "sequence (P53341 whole entry)": "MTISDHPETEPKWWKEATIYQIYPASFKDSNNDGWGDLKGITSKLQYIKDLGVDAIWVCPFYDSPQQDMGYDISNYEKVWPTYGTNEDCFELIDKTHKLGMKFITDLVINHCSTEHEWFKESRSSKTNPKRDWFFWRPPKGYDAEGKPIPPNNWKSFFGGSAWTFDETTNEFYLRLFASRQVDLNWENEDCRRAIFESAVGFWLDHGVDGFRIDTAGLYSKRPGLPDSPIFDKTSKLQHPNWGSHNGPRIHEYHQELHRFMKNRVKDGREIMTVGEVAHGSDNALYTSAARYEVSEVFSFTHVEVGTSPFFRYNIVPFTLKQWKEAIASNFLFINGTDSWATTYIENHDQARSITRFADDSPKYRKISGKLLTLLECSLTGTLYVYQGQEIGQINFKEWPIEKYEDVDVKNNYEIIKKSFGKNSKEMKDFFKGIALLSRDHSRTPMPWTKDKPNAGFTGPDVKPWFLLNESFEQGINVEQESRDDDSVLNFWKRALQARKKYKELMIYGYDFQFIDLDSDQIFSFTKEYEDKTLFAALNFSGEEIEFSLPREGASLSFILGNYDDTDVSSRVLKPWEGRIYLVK", "assay": "α-glucosidase inhibition (pNPG, spectrophotometric)", "type": "biochemical", "conditions": "pNPG substrate, pH 6.8, 37 °C; read-out: IC50 [mM] inhibition of α-glucosidase by compounds isolated from fruit of Cornus alba", "source_text": "Acetonitrile (MeCN, UHPLC-grade), n-butanol (BuOH), chloroform (CHCl3), ethyl acetate (EtOAc), ethanol (EtOH) and methanol (MeOH) for extraction were obtained from POCH (Gliwice, Poland). Natural product reagent A (diphenylboric acid 2-aminoethyl ester) and quercetin 3-O-glucoside (isoquercitrin) were purchased from Carl Roth GmbH (Karlsruhe, Germany). […] Quercetin 3-O-galactoside (hyperoside) was purchased from HWI Analytik GmbH (Rheinzaberner, Germany). […] Water was obtained using Millipore Simfilter Simplicity UV (Molsheim, France) water purification system. HPLC-DAD-MS^n analysis was performed on a UHPLC-3000 RS system (Dionex, Germany) with DAD and an AmaZon SL ion trap mass spectrometer with an ESI interface (Bruker Daltonik GmbH, Germany). […] If needed, additional experiments, such as HSQC and HMBC were performed. The NMR spectra were acquired using Varian VNMRS 300 Oxford 300 MHz spectrometer (Bruker, Billerica, MA, USA).\nThe α-glucosidase inhibition by extracts was determined spectrophotometrically according to the modified assay previously described. The colorimetric measurement of enzyme activity was based on the hydrolytic cleavage of a substrate, p-nitrophenyl-α-D-glucopyranoside (pNPG). Briefly, sample solution of tested extract or isolated compound (150 µl) dissolved in 0.1 M phosphate buffer (pH 6.8) was incubated with 50 µL of α-glucosidase solution (0.4 U/mL) at 37 °C. After 15 min of incubation, the substrate solution (0.7 mM in 0.1 M phosphate buffer, pH 6.8) was added and the second 15 min incubation at 37 °C was performed. The reaction was terminated by adding 50 µL sodium carbonate solution (0.2 M). The absorbance of p-nitrophenol was measured at 405 nm in a microplate reader (Synergy 4, Biotek, USA)."}, "[2]": {"set-up": "method as in PMID 11958615", "conditions": "concentration of 40 µM; cited from earlier work"}, "[3]": {"assay": "DPPH radical scavenging assay", "conditions": "half scavenging concentration; 30 min incubation, absorbance 518 nm", "experimental": "The scavenging of DPPH radical was examined using a modified assay previously described. The equal volumes (100 µL) of ethanolic solution of DPPH (0.02 M) and extract samples dissolved in 50% (v/v) aqueous-ethanol were added into 96-well microplates and incubated for 30 min in the darkness. The absorbance was measured at 518 nm with microplate reader (Synergy 4, Biotek, USA). The blind samples were prepared in order to exclude color interference. Ascorbic acid was used as a positive control."}, "glucosidase": {"system": "glucosidase", "set-up": "method as in Dehghan et al., 2018", "conditions": "ref Dehghan et al., 2018; cited from earlier work"}}}
{"molecule": "O=c1c(O[C@@H]2O[C@H](CO)[C@@H](O)[C@H](O)[C@H]2O)c(-c2ccc(O)c(O)c2)oc2cc(O)cc(O)c12", "note": "[quercetin-3-O-glucoside]", "values": [{"measurement": "IC50", "setting": "α-glucosidase", "result": 12.3, "unit": "µM"}, {"measurement": "IC50", "setting": "PL", "result": 1740, "unit": "µM"}]}
{"molecule": "COC(=O)C1(O)CC(O)C(O)C(OC(=O)/C=C/c2ccc(O)cc2)C1", "note": "(centres unmarked) [compound 3, 5-O-(E)-p-coumaroylquinic acid methyl ester]", "values": [{"measurement": "IC50", "setting": "[1]", "result": "0.16 ± 0.01", "unit": "mM"}]}
{"molecule": "kaempferol-3-O-rutinoside", "values": [{"measurement": "IC50", "setting": "α-glucosidase", "result": 10.2, "unit": "µM"}]}
{"molecule": "COc1cc(/C=C/C(=O)O)ccc1O", "note": "[ferulic acid]", "values": [{"measurement": "IC50", "setting": "α-glucosidase", "result": 461, "unit": "µM"}]}
{"molecule": "O=C(C=Cc1ccc(O)cc1)OC1CC(O)(C(=O)O)CC(O)C1O", "note": "(centres unmarked) [compound 2, 5-O-coumaroylquinic acid]", "values": [{"measurement": "IC50", "setting": "[1]", "result": "0.84 ± 0.14", "unit": "mM"}]}
{"molecule": "OC[C@H]1O[C@@H](Oc2cc3c(O)cc(O)cc3[o+]c2-c2ccc(O)c(O)c2)[C@H](O)[C@@H](O)[C@H]1O", "note": "[cyanidin 3-O-β-galactoside]", "values": [{"measurement": "antioxidant activity", "setting": "[2]", "result": 60.1, "unit": "%"}]}
{"molecule": "OCC1OC(Oc2cc3c(O)cc(O)cc3[o+]c2-c2ccc(O)cc2)C(O)C(O)C1O", "note": "(stereo not drawn) [pelargonidin 3-O-β-galactoside]", "values": [{"measurement": "antioxidant activity", "setting": "[2]", "result": 40.3, "unit": "%"}]}
{"molecule": "O=C(O)c1cc(O)c(O)c(O)c1", "note": "[gallic acid]", "values": [{"measurement": "IC50", "setting": "α-glucosidase", "result": 296, "unit": "µM"}, {"measurement": "IC50", "setting": "PL", "result": 5050, "unit": "µM"}]}
{"molecule": "OC[C@H]1O[C@@H](Oc2cc3c(O)cc(O)cc3[o+]c2-c2cc(O)c(O)c(O)c2)[C@H](O)[C@@H](O)[C@H]1O", "note": "[delphinidin 3-O-β-galactoside]", "values": [{"measurement": "antioxidant activity", "setting": "[2]", "result": 70.2, "unit": "%"}]}
{"molecule": "O=c1c(O[C@@H]2O[C@H](CO)[C@@H](O)[C@H](O)[C@H]2O)c(-c2ccc(O)cc2)oc2cc(O)cc(O)c12", "note": "[kaempferol-3-O-glucoside]", "values": [{"measurement": "IC50", "setting": "PL", "result": 3520, "unit": "µM"}]}
{"molecule": "O=C(/C=C/c1ccc(O)c(O)c1)O[C@@H]1C[C@](O)(C(=O)O)C[C@@H](O)[C@H]1O", "note": "[compound 1, chlorogenic acid]", "values": [{"measurement": "IC50", "setting": "PL", "result": 3810, "unit": "µM"}]}
{"molecule": "OC[C@H]1O[C@@H](OCCc2ccc(O)c(O)c2)[C@H](O)[C@@H](O)[C@@H]1O", "note": "[compound 5, hydroxytyrosol glucoside]", "values": [{"measurement": "IC50", "setting": "[1]", "result": "1.46 ± 0.18", "unit": "mM"}]}
{"molecule": "O=C(O)/C=C/c1ccc(O)c(O)c1", "note": "[caffeic acid]", "values": [{"measurement": "IC50", "setting": "α-glucosidase", "result": 223, "unit": "µM"}]}
{"molecule": "O=C1O[C@H]([C@@H](O)CO)C(O)=C1O", "note": "[Ascorbic acid]", "values": [{"measurement": "SC50 DPPH scavenging", "setting": "[3]", "result": "3.73 ± 0.83", "unit": "µg/mL"}]}
{"molecule": "COc1cc(O)c2c(c1)C(=O)c1cc(C)cc(O)c1C2=O", "note": "[physcion]", "values": [{"measurement": "anti-glucosidase activity (in words)", "setting": "glucosidase", "result": "relevant anti-glucosidase activity"}]}
{"molecule": "COC(=O)[C@H]1O[C@@H](Oc2c(-c3ccc(O)cc3)oc3cc(O)cc(O)c3c2=O)[C@H](O)[C@@H](O)[C@@H]1O", "note": "[compound 4, kaempferol 3-O-glucuronide 6″-methylester]", "values": [{"measurement": "IC50", "setting": "[1]", "result": "0.21 ± 0.05", "unit": "mM"}]}
{"molecule": "Cc1cc(O)c2c(c1)C(=O)c1cc(O)cc(O)c1C2=O", "note": "[emodin]", "values": [{"measurement": "anti-glucosidase activity (in words)", "setting": "glucosidase", "result": "relevant anti-glucosidase activity"}]}
{"molecule": "C[C@H](CCc1ccc(O)cc1)O[C@@H]1O[C@H](CO)[C@@H](O)[C@H](O)[C@H]1O", "note": "[rhododendrin]", "values": [{"measurement": "anti-glucosidase activity (in words)", "setting": "glucosidase", "result": "relevant anti-glucosidase activity"}]}
